Measurements taken from PubChem BioAssay (NCI).
Values joined by “and” are separate entries in the source; they are usually repeats but may differ in a detail not shown here. Equal entries are not always repeated.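 Each compound was tested at five concentrations against cells in 96-well plates for 48 hours. Here, GI50 denotes the concentration required for 50% inhibition of growth. The concentration for full growth arrest is given as TGI.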

Key:
Assay in all cases: DTP human tumour cell line panel, 48 h
SNB-75 CNS = tested on: SNB-75 CNS
MOLT-4 leukemia = tested on: MOLT-4 leukemia
786-0 renal = tested on: 786-0 renal
ACHN renal = tested on: ACHN renal
MDA-MB-435 = tested on: MDA-MB-435
OVCAR-4 ovarian = tested on: OVCAR-4 ovarian
SK-MEL-2 melanoma = tested on: SK-MEL-2 melanoma
RPMI-8226 leukemia = tested on: RPMI-8226 leukemia
MALME-3M melanoma = tested on: MALME-3M melanoma
EKVX NSCLC = tested on: EKVX NSCLC

Compound | TGI (SNB-75 CNS) | TGI (MOLT-4 leukemia) | TGI (786-0 renal) | TGI (ACHN renal) | GI50 (MDA-MB-435) | TGI (MDA-MB-435) | GI50 (OVCAR-4 ovarian) | TGI (OVCAR-4 ovarian) | GI50 (SK-MEL-2 melanoma) | TGI (SK-MEL-2 melanoma) | TGI (RPMI-8226 leukemia) | TGI (MALME-3M melanoma) | TGI (EKVX NSCLC)
CC(=O)Oc1ccc2c3c1[C@@H]1O[C@@H]1c1cccc(c1-3)[C@@H]1O[C@H]21 | 3.07 µM | > 100 µM | 3.14 µM | 3.74 µM | 1.79 µM | 3.38 µM | 2.39 µM | 5.48 µM | 3.12 µM | > 100 µM |  |  | 
Cc1ccc(S(=O)(=O)NC(=O)NCC(=O)O)cc1 | > 100 µM | > 100 µM | > 100 µM | > 100 µM |  |  |  | > 100 µM |  | > 100 µM | > 100 µM | > 100 µM | 
C[Si](C)(C)C#CCOC=C1CC1 | > 100 µM | > 100 µM | > 100 µM | > 100 µM |  |  |  | > 100 µM |  | > 100 µM |  | > 100 µM | > 100 µM
NC1=CN(Cc2ccccc2)C2=N/C(=C\c3ccco3)C(=O)N12 | > 100 µM | > 100 µM | > 100 µM | > 100 µM |  | > 100 µM |  | > 100 µM |  | > 100 µM |  | > 100 µM | > 100 µM
CSc1nc(Cl)c2c(n1)Sc1nc3ccccc3n1N=C2 | 71.5 µM | 63.2 µM | 70.2 µM | 58 µM |  | > 100 µM |  | > 100 µM |  | > 100 µM | 60 µM | 68.2 µM | 
Cc1ccc(C)c(C(=N)c2ccccc2Cc2ccccc2)c1 |  | 38.2 µM | 32.2 µM | 35.7 µM |  | 47.2 µM |  | 85.8 µM |  | 32 µM | 35.4 µM | 28 µM | 56.8 µM
COc1ccccc1NC1=NCC(C)S1 (stereo not drawn) | > 100 µM | > 100 µM | > 100 µM | > 100 µM |  | > 100 µM |  |  |  | > 100 µM | > 100 µM | > 100 µM | > 100 µM
NCCSc1nc(N)c2ncn(C3OC(CO)C(O)C3O)c2n1 (stereo not drawn) | > 100 µM | > 100 µM | > 100 µM | > 100 µM |  |  |  | > 100 µM |  | > 100 µM | > 100 µM | > 100 µM | 
OCC(O)C(O)C(C=NNc1ncnc2ccc(Br)cc12)=NNc1ncnc2ccc(Br)cc12 (stereo not drawn) | 17.6 µM and > 100 µM | 12.1 µM and > 100 µM | > 100 µM | 14.2 µM and > 100 µM |  | 76.9 µM and > 100 µM |  | 23.7 µM and > 100 µM |  | 12.1 µM and > 100 µM | > 100 µM |  | 20.9 µM and > 100 µM
CC(C)=C=CC(C)(C)NS(=O)(=O)NC(C)(C)C=C=C(C)C | > 100 µM |  | > 100 µM | > 100 µM |  | > 100 µM |  | > 100 µM |  | > 100 µM |  | > 100 µM | > 100 µM
C#CC1(O)CC(c2ccccc2)N(C)C(c2ccccc2)C1 (stereo not drawn) | > 100 µM | > 100 µM | > 100 µM | > 100 µM |  |  |  | > 100 µM |  | > 100 µM |  | > 100 µM | > 100 µM
Nc1ccc2c(c1)S(=O)(=O)c1cc(N)ccc1-2 |  | > 100 µM | > 100 µM | > 100 µM |  | > 100 µM |  | > 100 µM |  | > 100 µM |  |  | > 100 µM
N#CCCN(CCC#N)c1ccc(/C=C2\N=C(c3ccccc3)N(c3ccccc3)C2=O)cc1 |  | > 100 µM | > 100 µM | > 100 µM |  | > 100 µM |  | > 100 µM |  | > 100 µM | > 100 µM | > 100 µM | > 100 µM
COC(=O)C(=O)C(C(=O)C(=O)Nc1nc(=S)[nH][nH]1)c1nc2ccc([N+](=O)[O-])cc2[nH]c1=O (stereo not drawn) | > 100 µM |  | > 100 µM | > 100 µM |  | > 100 µM |  | > 100 µM |  | > 100 µM | > 100 µM | > 100 µM | > 100 µM
CCCC(=O)OC1=C(c2ccccc2)Sc2ccccc2-n2cccc21 | > 10 µM | > 10 µM | > 10 µM |  |  | > 10 µM |  | > 10 µM |  |  | > 10 µM | > 10 µM | > 10 µM
O=C1NC(=O)C2(CCc3ccc(N(CCCl)CCCl)cc32)N1 (stereo not drawn) | 26.3 µM | 49.8 µM |  |  |  |  |  | 41.4 µM |  | 43.4 µM | 99.2 µM |  | 16.4 µM
NC(=O)N=Nc1c2ccccc2n2[nH]ccc12 | > 100 µM | > 100 µM | > 100 µM | > 100 µM |  | > 100 µM |  | > 100 µM |  | > 100 µM |  | > 100 µM | > 100 µM
CN1C(=O)C(O)C[C@@H]1c1ccc(F)cc1 (stereo partly drawn) |  | > 100 µM | > 100 µM | > 100 µM |  | > 100 µM |  | > 100 µM |  | > 100 µM | > 100 µM |  | > 100 µM
O=c1[nH]c(Br)nc2c(N3CCCCC3)c[nH]c12 | > 100 µM | > 100 µM | > 100 µM | > 100 µM |  |  |  | > 100 µM |  | > 100 µM | > 100 µM | > 100 µM | > 100 µM
Cc1ccc(C(=O)C(C)N)cc1C (stereo not drawn) | > 100 µM | > 100 µM | > 100 µM | > 100 µM |  |  |  | > 100 µM |  | > 100 µM | > 100 µM | > 100 µM | > 100 µM
N=c1oc2ccc(Cl)cc2cc1C(=O)NC1CCCCC1 | > 100 µM | > 100 µM | > 100 µM | > 100 µM |  | > 100 µM |  | > 100 µM |  | > 100 µM | > 100 µM |  | 
O=C(O)CCCN=C(C(=NCCCC(=O)O)c1ccccc1)c1ccccc1 | > 100 µM | > 100 µM | > 100 µM | > 100 µM |  | > 100 µM |  | > 100 µM |  | > 100 µM | > 100 µM |  | > 100 µM
CC(C)(C)c1cc2c(O)c(c1)COCc1cc(C(C)(C)C)cc(c1O)COCc1cc(C(C)(C)C)cc(c1O)COC2 | > 100 µM | > 100 µM | > 100 µM | > 100 µM |  | > 100 µM |  | > 100 µM |  | > 100 µM | > 100 µM |  | > 100 µM
O=Cc1ccc2[nH]c(=O)oc2c1 |  | > 100 µM | > 100 µM | > 100 µM |  | > 100 µM |  |  |  | > 100 µM | > 100 µM | > 100 µM | > 100 µM
